Source: patent publication US20250243180A1, “TARGETED PROTEIN DEGRADATION” (Monte Rosa Therapeutics AG, priority 2023, published 2025)
Read-outs that look alike come from different tables or passages of the source.

How the values were obtained:
NEK7 = NEK7 (Homo sapiens (Human), UniProt Q8TDX7+Q96SW2); assay: NEK7 NanoBiT degradation assay in Cal51 NEK7 NanoBiT cell line; format: cell-based; details: Cal51 NEK7 NanoBiT cells, 24 hours; for Dmax: CAL-51
Outline: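 Cal51 cells with CRISPR knock-in HiBiT-tagged endogenous NEK7 plus stable LgBiT, in live-cell Endurazine medium, seeded 16 h before dosing. Compounds at final 1 μM to 0.05 nM for 24 h at 37 °C, then luminescence read. Response normalized to plate controls and fitted with a 4-parameter logistic giving EC50.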

CRBN-DDB1 = CRBN-DDB1 (Homo sapiens (Human), UniProt Q96SW2); assay: Compound binding to CRBN by HTRF assay
Sequence of CRBN-DDB1 (Q96SW2 whole entry): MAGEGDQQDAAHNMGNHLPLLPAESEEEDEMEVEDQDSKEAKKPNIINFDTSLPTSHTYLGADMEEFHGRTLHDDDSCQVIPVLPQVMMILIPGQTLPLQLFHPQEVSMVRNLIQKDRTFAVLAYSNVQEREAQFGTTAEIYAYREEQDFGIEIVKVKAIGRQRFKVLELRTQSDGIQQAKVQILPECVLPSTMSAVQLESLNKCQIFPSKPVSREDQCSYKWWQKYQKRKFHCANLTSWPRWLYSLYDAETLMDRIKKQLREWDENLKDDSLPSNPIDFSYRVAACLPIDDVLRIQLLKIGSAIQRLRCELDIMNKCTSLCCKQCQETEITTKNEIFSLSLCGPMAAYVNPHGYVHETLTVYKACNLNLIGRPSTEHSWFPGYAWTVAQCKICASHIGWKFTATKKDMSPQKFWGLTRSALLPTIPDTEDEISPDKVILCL
Sequence of CRBN-DDB1 (Q16531 whole entry partner): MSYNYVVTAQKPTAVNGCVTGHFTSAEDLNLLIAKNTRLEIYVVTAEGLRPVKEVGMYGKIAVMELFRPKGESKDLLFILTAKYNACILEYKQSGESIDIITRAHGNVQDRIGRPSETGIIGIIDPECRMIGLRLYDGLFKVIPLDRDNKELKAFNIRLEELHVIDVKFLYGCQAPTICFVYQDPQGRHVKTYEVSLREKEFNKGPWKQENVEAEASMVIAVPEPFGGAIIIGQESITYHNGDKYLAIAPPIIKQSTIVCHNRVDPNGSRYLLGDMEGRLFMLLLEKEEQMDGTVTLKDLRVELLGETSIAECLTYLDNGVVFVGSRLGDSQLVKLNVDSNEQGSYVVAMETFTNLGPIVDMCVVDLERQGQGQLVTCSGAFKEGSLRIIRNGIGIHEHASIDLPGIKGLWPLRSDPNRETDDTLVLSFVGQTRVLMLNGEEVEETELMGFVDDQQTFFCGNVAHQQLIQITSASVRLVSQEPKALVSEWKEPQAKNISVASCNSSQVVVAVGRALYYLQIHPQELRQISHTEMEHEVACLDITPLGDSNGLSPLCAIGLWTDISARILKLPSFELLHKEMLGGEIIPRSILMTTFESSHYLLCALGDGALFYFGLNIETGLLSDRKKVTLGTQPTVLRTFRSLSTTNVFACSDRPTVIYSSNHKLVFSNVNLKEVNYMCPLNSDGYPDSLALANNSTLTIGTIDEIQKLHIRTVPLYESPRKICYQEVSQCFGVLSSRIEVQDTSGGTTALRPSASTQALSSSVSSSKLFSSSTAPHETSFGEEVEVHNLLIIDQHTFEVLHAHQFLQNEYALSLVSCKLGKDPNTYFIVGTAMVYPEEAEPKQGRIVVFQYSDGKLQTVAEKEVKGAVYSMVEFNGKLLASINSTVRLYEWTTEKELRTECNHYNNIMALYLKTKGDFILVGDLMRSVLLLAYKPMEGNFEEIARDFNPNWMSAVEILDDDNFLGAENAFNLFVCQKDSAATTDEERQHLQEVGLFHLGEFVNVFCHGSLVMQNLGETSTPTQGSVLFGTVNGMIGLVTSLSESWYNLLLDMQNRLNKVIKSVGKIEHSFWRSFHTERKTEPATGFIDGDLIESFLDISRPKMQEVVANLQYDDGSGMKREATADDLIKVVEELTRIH
Outline: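 HTRF displacement of Cy5-thalidomide probe (100 nM) from His-tagged CRBN-DDB1 (2.5 nM) with anti-His terbium cryptate, in HEPES/NaCl/TCEP/EDTA/Tween20 buffer; 11-point 1:3 dilution series, 30 min at ambient temperature. Signal (665/620 nm) normalized to lenalidomide and DMSO controls; EC50 fitted, Ki by Cheng-Prusoff from geometric mean EC50.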

[1] = NEK7 degradation, read-out: NanoBiT Dmax
[2] = NEK7 degradation, read-out: NanoBiT DC50

Sequence of NEK7 (Q8TDX7 whole entry): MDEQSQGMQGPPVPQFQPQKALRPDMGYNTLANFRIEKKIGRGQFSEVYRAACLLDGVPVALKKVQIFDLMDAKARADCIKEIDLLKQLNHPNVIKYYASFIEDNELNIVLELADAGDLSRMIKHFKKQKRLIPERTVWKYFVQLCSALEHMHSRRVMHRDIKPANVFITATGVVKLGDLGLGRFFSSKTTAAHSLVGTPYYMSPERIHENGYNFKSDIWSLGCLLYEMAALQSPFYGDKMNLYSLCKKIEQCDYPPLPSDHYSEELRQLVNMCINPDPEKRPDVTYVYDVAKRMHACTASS
Sequence of NEK7 (Q96SW2 whole entry): as the sequence (Q96SW2 whole entry) above
Sequence of NEK7 (Q16531 2-1140 partner): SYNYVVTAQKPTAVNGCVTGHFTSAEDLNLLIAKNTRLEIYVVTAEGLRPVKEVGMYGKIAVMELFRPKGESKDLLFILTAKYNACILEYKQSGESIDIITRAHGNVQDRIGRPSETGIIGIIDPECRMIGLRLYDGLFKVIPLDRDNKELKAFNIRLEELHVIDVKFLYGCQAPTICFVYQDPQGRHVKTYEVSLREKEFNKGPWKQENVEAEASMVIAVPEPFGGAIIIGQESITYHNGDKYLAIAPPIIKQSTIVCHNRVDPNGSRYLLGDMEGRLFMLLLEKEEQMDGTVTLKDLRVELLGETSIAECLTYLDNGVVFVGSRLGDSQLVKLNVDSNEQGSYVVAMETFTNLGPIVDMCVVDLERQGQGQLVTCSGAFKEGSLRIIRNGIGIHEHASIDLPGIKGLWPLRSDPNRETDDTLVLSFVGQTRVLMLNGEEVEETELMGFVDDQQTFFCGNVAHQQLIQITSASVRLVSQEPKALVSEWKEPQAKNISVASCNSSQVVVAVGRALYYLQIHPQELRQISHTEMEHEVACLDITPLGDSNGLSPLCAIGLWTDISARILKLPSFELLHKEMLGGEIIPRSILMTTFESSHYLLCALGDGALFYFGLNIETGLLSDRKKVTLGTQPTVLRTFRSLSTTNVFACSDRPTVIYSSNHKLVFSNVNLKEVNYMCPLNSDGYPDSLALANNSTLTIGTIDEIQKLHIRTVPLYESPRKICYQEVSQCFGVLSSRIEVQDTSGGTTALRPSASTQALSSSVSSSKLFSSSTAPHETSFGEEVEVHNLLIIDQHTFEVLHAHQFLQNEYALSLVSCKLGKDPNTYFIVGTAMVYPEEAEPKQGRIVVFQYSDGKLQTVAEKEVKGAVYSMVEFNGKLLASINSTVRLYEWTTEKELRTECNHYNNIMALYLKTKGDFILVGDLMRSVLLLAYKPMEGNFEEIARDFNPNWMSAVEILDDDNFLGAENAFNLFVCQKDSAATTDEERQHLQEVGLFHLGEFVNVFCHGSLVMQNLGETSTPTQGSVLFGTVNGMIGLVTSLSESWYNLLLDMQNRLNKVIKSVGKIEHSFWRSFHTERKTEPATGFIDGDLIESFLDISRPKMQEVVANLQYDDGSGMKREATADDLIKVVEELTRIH

SMILES	Dmax (NEK7; read-out: NEK7 NanoBiT Dmax) [%]	Dmax (NEK7; [1]) [%]	DC50 (NEK7; read-out: NEK7 NanoBiT DC50) [µM]	DC50 (NEK7; [2]) [µM]	EC50 (CRBN-DDB1) [µM]	EC50 (CRBN-DDB1; HTRF class, Cereblon binding) [µM]
CC(C)(C(=O)NCc1ccc(C2CCC(=O)NC2=O)c(Cl)c1)c1ccc(F)cc1 (stereo not drawn) [Compound 30]	92	> 75	0.012	≤ 0.1	0.35	0.1 to 1
CC(C)(C(=O)NCc1cc(Cl)c(C2CCC(=O)NC2=O)c(Cl)c1)c1ccon1 (stereo not drawn) [Compound 121]	80	> 75	0.03	≤ 0.1	0.29	0.1 to 1
Cn1ncc2ccc(C(C)(C)C(=O)NCc3cc(Cl)c(C4CCC(=O)NC4=O)c(Cl)c3)cc21 (stereo not drawn) [Compound 78]	97	> 75	0.0004	≤ 0.1	0.06	≤ 0.1
Cc1cnc(C(C)(C)C(=O)NCc2cc(Cl)c([C@]3(F)CCC(=O)NC3=O)c(Cl)c2)nc1 (single isomer, unassigned) [Compound 243]	9	≤ 50	1	> 1	≥ 10	> 1
COc1ccc(C(C)(C)C(=O)NCc2cc(F)c(C3CCC(=O)NC3=O)c(Cl)c2)nn1 (stereo not drawn) [Compound 262]	88	> 75	0.012	≤ 0.1	0.08	≤ 0.1
CC(C)(C(=O)NCc1cc(Cl)c(C2CCC(=O)NC2=O)c(Cl)c1)c1nc(C(F)F)no1 (stereo not drawn) [Compound 219]	72	50 to 75	0.047	≤ 0.1	0.08	≤ 0.1
CC(C)(C(=O)NCc1cc(Cl)c(C2CCC(=O)NC2=O)c(Cl)c1)c1cnc(F)nc1 (stereo not drawn) [Compound 5, N-(3,5-dichloro-4-(2,6-dioxopiperidin-3-yl)benzyl)-2-(2-fluoropyrimidin-5-yl)-2-methylpropanamide]	63	50 to 75	0.133	0.1 to 1	0.12	0.1 to 1
CC(C)(C(=O)NCc1cc(Cl)c(C2CCC(=O)NC2=O)c(Cl)c1)c1ncc(N2CCC2)cn1 (stereo not drawn) [Compound 165]	69	50 to 75	0.047	≤ 0.1	0.17	0.1 to 1
CC(C)(C(=O)NCc1cc(Cl)c(C2CCC(=O)NC2=O)c(Cl)c1)c1cccc(C(N)=O)c1 (stereo not drawn) [Compound 65]	98	> 75	0.001	≤ 0.1	0.14	0.1 to 1
CC(C)(C(=O)NCc1cc(Cl)c(C2CCC(=O)NC2=O)c(Cl)c1)c1cc2ocnc2cn1 (stereo not drawn) [Compound 146]	91	> 75	0.005	≤ 0.1	0.18	0.1 to 1
O=C1CCC(c2c(Cl)cc(CNC(=O)C3(c4ccc5cn[nH]c5c4)CCOCC3)cc2Cl)C(=O)N1 (stereo not drawn) [Compound 131, N-(3,5-dichloro-4-(2,6-dioxopiperidin-3-yl)benzyl)-4-(1H-indazol-6-yl)tetrahydro-2H-pyran-4-carboxamide]	96	> 75	0.001	≤ 0.1	0.02	≤ 0.1
Cc1cnc(C(C)(C)C(=O)NCc2cc(Cl)c([C@@]3(F)CCC(=O)NC3=O)c(Cl)c2)nc1 (single isomer, unassigned) [Compound 244]	19	≤ 50	1	> 1	0.22	0.1 to 1
COCCc1cnc(C(C)(C)C(=O)NCc2cc(Cl)c(C3CCC(=O)NC3=O)c(Cl)c2)nc1 (stereo not drawn) [Compound 245, N-(3,5-dichloro-4-(2,6-dioxopiperidin-3-yl)benzyl)-2-(5-(2-methoxyethyl)pyrimidin-2-yl)-2-methylpropanamide]	48	≤ 50	0.672	0.1 to 1	0.16	0.1 to 1
CC(F)(F)c1ccc(C(C)(C)C(=O)NCc2cc(F)c(C3CCC(=O)NC3=O)c(Cl)c2)nn1 (stereo not drawn) [Compound 277]	61	50 to 75	0.155	0.1 to 1	0.18	0.1 to 1
CN1Cc2ccccc2CC1C(=O)NCc1cc(Cl)c(C2CCC(=O)NC2=O)c(Cl)c1 (stereo not drawn) [Compound 48]	66	50 to 75	0.054	≤ 0.1	0.13	0.1 to 1
CC(C)(C(=O)NCc1cc(Cl)c(C2CCC(=O)NC2=O)c(Cl)c1)c1cc(C2CC2)on1 (stereo not drawn) [Compound 185]	83	> 75	0.015	≤ 0.1	0.22	0.1 to 1
Cc1conc1C(C)(C)C(=O)NCc1cc(F)c(C2CCC(=O)NC2=O)c(Cl)c1 (stereo not drawn) [Compound 279]	54	50 to 75	0.672	0.1 to 1	0.35	0.1 to 1
Cc1cc(C(C)(C)C(=O)NCc2cc(Cl)c(C3CCC(=O)NC3=O)c(Cl)c2)ncn1 (stereo not drawn) [Compound 173]	85	> 75	0.019	≤ 0.1	0.23	0.1 to 1
CC(C)(C(=O)NCc1cc(Cl)c(C2CCC(=O)NC2=O)c(Cl)c1)c1ccns1 (stereo not drawn) [Compound 125]	71	50 to 75	0.054	≤ 0.1	0.07	≤ 0.1
CC(C)(C(=O)NCc1cc(Cl)c(C2CCC(=O)NC2=O)c(Cl)c1)c1ccc2[nH]c(=O)oc2c1 (stereo not drawn) [Compound 77]	95	> 75	0.003	≤ 0.1	0.07	≤ 0.1
CC(C)(C(=O)NCc1cc(Cl)c(C2CCC(=O)NC2=O)c(Cl)c1)c1ncc(CC(F)(F)F)cn1 (stereo not drawn) [Compound 195]	63	50 to 75	0.138	0.1 to 1	0.22	0.1 to 1
CC(C)(C(=O)NCc1cc(Cl)c(C2CCC(=O)NC2=O)c(Cl)c1)c1cnc(C2CC2)cn1 (stereo not drawn) [Compound 232]	93	> 75	0.003	≤ 0.1	0.15	0.1 to 1
COCc1ccnc(C(C)(C)C(=O)NCc2cc(Cl)c(C3CCC(=O)NC3=O)c(Cl)c2)n1 (stereo not drawn) [Compound 217]	56	50 to 75	0.327	0.1 to 1	0.15	0.1 to 1
Cc1ccnc(C(C)(C)C(=O)NCc2cc(Cl)c(C3CCC(=O)NC3=O)c(Cl)c2)n1 (stereo not drawn) [Compound 160]	76	> 75	0.034	≤ 0.1	0.2	0.1 to 1
CN(C)c1ccc(C(C)(C)C(=O)NCc2cc(Cl)c(C3CCC(=O)NC3=O)c(Cl)c2)cc1 (stereo not drawn) [Compound 71]	90	> 75	0.009	≤ 0.1	0.14	0.1 to 1
